Earlier results as cited in patent US20130216646A1, “Nanoparticles of Nutritional and Pharmaceutical Compounds” (priority 2011, published 2013).
Where two headings read alike, the source gives them in different places.

Columns and labels:
[1] = dogs
[2] = for Sojourn time: another study
[3] = in vivo

Compound: [Ca+2] [calcium]
- Share of calcium absorption occurring in the duodenum [1]: 4%
- Share of calcium absorption occurring in the ileum [1]: 80%
- Share of calcium absorption occurring in the jejunum [1]: 16%
- Share of calcium absorption occurring in the duodenum (rat intestine, another study): 7%
- Share of calcium absorption occurring in the ileum (rat intestine, another study): 65%
- Share of calcium absorption occurring in the jejunum (rat intestine, another study): 17%
- Share of calcium absorption occurring in the duodenum (rat small intestine, one study): 8%
- Share of calcium absorption occurring in the ileum (rat small intestine, one study): 88%
- Share of calcium absorption occurring in the jejunum (rat small intestine, one study): 4%
- Transit half-time ([2]; rat duodenum): 6 min
- Sojourn time ([2]; rat duodenum): 2.2 min
- Transit half-time ([2]; rat ileum): 102 min
- Sojourn time ([2]; rat ileum): 121.5 min
- Share of overall calcium absorption accounted for by the small intestine [3]: about 90%
